{
  "source": "patent US9540664B2",
  "about": "“Systems and methods for improving ethanol yield” (POET Research, Inc, priority 2011, dated 2017)",
  "key": {"yeast [1]": {"test_system": "yeast", "conditions": "320 gal per 720,000 gal or 250 gal per 550,000 gal fermentor, added 1.5 hours into fill, 36% dry solids", "method": "In commercial ethanol production facilities, acetic acid is thought to be inhibitory to yeast growth and fermentation. […] The dosage of acetic acid used is 320 gal per 720,000 gal fermentor or 250 gal per 550,000 gal fermentor and the acetic acid is added at 1.5 hours into fill of the fermentor (which would be about 1 hour after yeast inoculation from the yeast conditioning tank). […] A few batches were conducted with added acetic acid (primed) and a few batches were operated normally without additional acetic acid."}, "yeast [2]": {"test_system": "yeast", "conditions": "24 hours at 88° F.", "method": "The samples were serially diluted and appropriate dilutions were plated on to Yeast extract-Malt extract (YM) agar plates. The plates were incubated at 30° C. and the colonies formed were counted after 48 h. The results were expressed as colony forming units (CFU) per mL.\nSamples tested include a control with no acetic acid addition, and samples treated at 1200 ppm and 2400 ppm respectively."}, "yeast [3]": {"test_system": "yeast", "conditions": "20% w/v sucrose", "method": "For this example, a laboratory media with sucrose was used. The media used was Yeast extract-Peptone (YP) broth supplemented with 20% w/v (200 g/L) sucrose. An acetic acid dose response (at 500, 1000, 1500, 2000, 2500, and 3000 ppm) was conducted. Control with no added acetic acid was also included. The fermenters were pH adjusted to 4.5 and after yeast inoculation the fermentations were carried out for 30 hours at 32° C. After 30 h, samples were withdrawn and analyzed for sugars, organic acids, and ethanol. Samples were also withdrawn at 24 h and yeast growth was monitored by optical density measurement at 600 nm."}, "yeast [4]": {"test_system": "yeast", "method": "The entire experiment was conducted in duplicate.\nIn this experiment, corn that was ground using a hammer mill to >90% fines was obtained from a nearby biorefinery. […] The slurry (˜70 mL) was prepared by weighing out the appropriate amount of corn and water into each individual reactor. Lactoside247™ was added at 2.5 ppm to prevent any lactic acid bacterial contamination. Urea was added ˜0.24 g/L (4 mM) for a nitrogen source.\nA raw starch hydrolyzing enzyme blend was added at 0.2 g/L. Everything was added to the reactor in such a way that the final volume in the reactor was 70 mL. […] (88° F.). […] (82° F.). Samples were withdrawn at 0, 24, 48, 72, and 88 hr of fermentation and analyzed for sugars, glycerol, organic acids and ethanol using HPLC.\nAbout 4 mL of sample was withdrawn at each time point. These samples were centrifuged at 4500 rpm for 2 min. The supernatant was then filtered through a 0.2 μpore size filter into HPLC vials. […] An aliquot (5 μL) of the sample was injected by the auto-injector onto a reverse phase column (HPX-87H from BioRad Laboratories) maintained at 50° C. Aqueous sulfuric acid at 0.005M was used as the mobile phase (eluent). […] The components (sugars, organic acids, and ethanol) were identified and quantified using Waters Empower software."}},
  "note": "Like-named read-outs stand apart in the source and are kept apart here.",
  "data": [
    {"smiles": "CC(=O)O", "note": "[acetic acid]", "values": [
      {"measurement": "ethanol production, primed vs no priming", "setting": "yeast [1]", "result": "increased ethanol production"},
      {"measurement": "glycerol production, primed vs no priming", "setting": "yeast [1]", "result": "decreases glycerol production significantly"},
      {"measurement": "reduction in cell counts", "setting": "yeast [2]; initial acetic acid 1200 ppm", "result": "About 24%"},
      {"measurement": "reduction in cell counts", "setting": "yeast [2]; initial acetic acid 2400 ppm", "result": "~32", "unit": "%"},
      {"measurement": "effect on ethanol conversion efficiency", "setting": "yeast [3]; above 2500 ppm acetic acid, pH 4.5", "result": "inhibitory to fermentation"},
      {"measurement": "effect on ethanol conversion efficiency", "setting": "yeast [3]; initial acetic acid between 2000 and 2500 ppm, pH 4.5, 30 hours at 32° C", "result": "stimulatory effect"},
      {"measurement": "effect on ethanol titers", "setting": "yeast [4]; 0.12% to 0.24% (1200-2400 ppm) acetic acid, initial pH 4.7 or 5.2", "result": "increased ethanol titers"},
      {"measurement": "effect on ethanol production", "setting": "yeast [4]; highest concentration tested 0.37% w/v, especially at pH 4.2", "result": "inhibitory effect"},
      {"measurement": "effect on ethanol production", "setting": "yeast [4]; initial pH 4.2", "result": "No major benefits"},
      {"measurement": "maximum reduction in glycerol", "setting": "yeast [4]; initial pH 4.7, initial acetic acid 0.24% w/v", "result": "over 50%"},
      {"measurement": "highest ethanol titer", "setting": "yeast [4]; initial pH 4.7, initial acetic acid 0.24% w/v, 36% dry solids, 88 hr fermentation", "result": 20.5, "unit": "% v/v"}
    ]}
  ]
}
